Test system: vine weevil
Assay: Drench treatments of potted Fuchsia triphylla hybrid cv. Koralle infested with vine weevil eggs (curative)
Type: in vivo
Conditions: curative drench treatment; after 6 months
Procedure: In 20-replicate tests, Fuchsia triphylla hybrid cv. Koralle was infested with 15 eggs per pot of vine weevil. Compound A in the form of an 80% water dispersible granule (Regent 800 WG) was suspended in water and added to each pot at the indicated rate per surface area of the pot at various dilutions. After 6 months, the trials were assessed.

N#Cc1nn(-c2c(Cl)cc(C(F)(F)F)cc2Cl)c(N)c1[S+]([O-])C(F)(F)F (stereo not shown) [Compound A, 5-amino-1-(2,6-dichloro 4-trifluoromethylphenyl) 4-trifluoromethylsulfinyl-3-cyanopyrazole]
protection of the plants compared with fonofos: protected the plants substantially better than the commercial standard fonofos

From patent EP0968651A1, “Pesticidal method and composition” (RHONE-POULENC A[…]., priority 1998, dated 2000)
